Results on 16 compounds are retold here after patent US9458153B2, “Dihydroquinolizinones for the treatment and prophylaxis of hepatitis B virus infection” (Hoffmann-La Roche Inc., priority 2014, dated 2016).

For the test, the system named is HBsAg. In words: HBsAg assay (chemiluminescence immunoassay of secreted HBsAg in HepG2.2.15 culture supernatant). Type of test: cell-based, HBV. Conditions: HepG2.2.15 cells, CLIA kit. In outline:
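HepG2.2.15 cells, which constitutively express HBV, were seeded in duplicate and treated with three-fold serial compound dilutions at 1% DMSO final. Secreted HBsAg in culture supernatant was measured semi-quantitatively by chemiluminescence immunoassay. IC50 was extrapolated from dose-response curves.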

The mark [1] stands for this setting: Hepatitis B virus, HepG2.2.15, HBsAg secretion reduced by 50% vs no drug control.
Setting [2] is: HBsAg secretion reduced by 50% vs no drug control.

SMILES strings stand for the structures.

On to `COc1cc2c(c(Cl)c1OC)CC(C)n1cc(C(=O)O)c(=O)cc1-2` (stereo not shown) [Example 83, 8-chloro-9,10-dimethoxy-6-methyl-2-oxo-6,7-dihydrobenzo[a]quinolizine-3-carboxylic acid], for which, under setting [1], inhibition was half-maximal at 5600 nM (IC50).
For `CCCOc1cc2c(cc1OC)CC(C)n1cc(C(=O)O)c(=O)cc1-2` (stereo not shown) [Example 87, 9-methoxy-6-methyl-2-oxo-10-propoxy-6,7-dihydrobenzo[a]quinolizine-3-carboxylic acid], under setting [1], it took 1550 nM to reach half-maximal inhibition (IC50).
`CCc1cc2c(cc1OC)CC(CC)n1cc(C(=O)O)c(=O)cc1-2` (stereo not shown) [Example 88, 6,10-diethyl-9-methoxy-2-oxo-6,7-dihydrobenzo[a]quinolizine-3-carboxylic acid]: under setting [1], the IC50 – broadly, the midpoint of a concentration-inhibition curve – came to 20 nM.
`CCC1Cc2cc(OC)c(C3CC3)cc2-c2cc(=O)c(C(=O)O)cn21` (stereo not shown) [Example 89, 10-cyclopropyl-6-ethyl-9-methoxy-2-oxo-6,7-dihydrobenzo[a]quinolizine-3-carboxylic acid]: under setting [2], half-maximal inhibition (IC50) was put at 8 nM.
Under setting [1], `CCC1Cc2cc(Br)c(OC)cc2-c2cc(=O)c(C(=O)O)cn21` (stereo not shown) [Example 92, 9-bromo-6-ethyl-10-methoxy-2-oxo-6,7-dihydrobenzo[a]quinolizine-3-carboxylic acid] had an IC50 of 230 nM.
Same read-out and setting: the figure for `CCC1Cc2cc(C#N)c(OC)cc2-c2cc(=O)c(C(=O)O)cn21` (stereo not shown) [Example 93, 9-cyano-6-ethyl-10-methoxy-2-oxo-6,7-dihydrobenzo[a]quinolizine-3-carboxylic acid] is 190 nM; for `CCOc1ccc(Br)c2c1-c1cc(=O)c(C(=O)O)cn1C(CC)C2` (stereo not shown) [Example 94, 8-bromo-11-ethoxy-6-ethyl-2-oxo-6,7-dihydrobenzo[a]quinolizine-3-carboxylic acid] it is 410 nM.
`CCOc1ccc(C#N)c2c1-c1cc(=O)c(C(=O)O)cn1C(CC)C2` (stereo not shown) [Example 95, 8-cyano-11-ethoxy-6-ethyl-2-oxo-6,7-dihydrobenzo[a]quinolizine-3-carboxylic acid]: under setting [1], half-maximal inhibition (IC50) required 7830 nM.
Regarding `CCCC1Cc2cc(OC)c(OC)cc2-c2cc(=O)c(C(=O)O)cn21` (stereo not shown) [Example 96, 9,10-dimethoxy-2-oxo-6-propyl-6,7-dihydrobenzo[a]quinolizine-3-carboxylic acid], under setting [1], the IC50 came out at 49 nM.
Still for that read-out and setting: the figure for `COc1cc2c(cc1OC)-c1cc(=O)c(C(=O)O)cn1C(C1CC1)C2` (stereo not shown) [Example 97, 6-cyclopropyl-9,10-dimethoxy-2-oxo-6,7-dihydrobenzo[a]quinolizine-3-carboxylic acid] is 70 nM.
Under setting [2], `COc1cc2c(cc1OC)-c1cc(=O)c(C(=O)O)cn1C(C(C)C)C2` (stereo not shown) [Example 98, 6-isopropyl-9,10-dimethoxy-2-oxo-6,7-dihydrobenzo[a]quinolizine-3-carboxylic acid] had an IC50 of 16 nM.
Under setting [2], `COc1cc2c(cc1OC)-c1cc(=O)c(C(=O)O)cn1C(CC(C)C)C2` (stereo not shown) [Example 101, 6-isobutyl-9,10-dimethoxy-2-oxo-6,7-dihydrobenzo[a]quinolizine-3-carboxylic acid] displayed a half-inhibitory concentration (IC50) of 45 nM.
On the same count and under the same terms, under `COCCOc1cc2c(cc1Cl)-c1cc(=O)c(C(=O)O)cn1C(CC(C)C)C2` (stereo not shown) [Example 104, 10-chloro-6-isobutyl-9-(2-methoxyethoxy)-2-oxo-6,7-dihydrobenzo[a]quinolizine-3-carboxylic acid] stands 18 nM; under `COCCOc1cc2c(cc1Cl)-c1cc(=O)c(C(=O)O)cn1C(C(C)C)C2` (stereo not shown) [Example 107, 10-chloro-6-isopropyl-9-(2-methoxyethoxy)-2-oxo-6,7-dihydrobenzo[a]quinolizine-3-carboxylic acid], 12 nM.
In the case of `COCCOc1cc2c(cc1F)-c1cc(=O)c(C(=O)O)cn1C(C(C)C)C2` (stereo not shown) [Example 110, 10-fluoro-6-isopropyl-9-(2-methoxyethoxy)-2-oxo-6,7-dihydrobenzo[a]quinolizine-3-carboxylic acid], inhibition under setting [1] was half-maximal at 52 nM (IC50).
Regarding `COCCOc1cc(Cl)c2c(c1)CC(C(C)C)n1cc(C(=O)O)c(=O)cc1-2` (stereo not shown) [Example 111, 11-chloro-6-isopropyl-9-(2-methoxyethoxy)-2-oxo-6,7-dihydrobenzo[a]quinolizine-3-carboxylic acid], inhibition under setting [1] was half-maximal at 40 nM (IC50).
